Test results published in patent US20240124454A1, “TRICYCLIC COMPOUND AND USE THEREOF” (NANJING ZAIMING PHARMACEUTICAL CO., LTD., priority 2020, published 2024).
pIC50: −log10 of the molar value. Where two headings read alike, the source gives them in different places.

Key:
[1] = molecular target: MAT2A (Homo sapiens (Human), UniProt P31153); assay: MAT2A biochemical test (inorganic phosphate colorimetric, PiColorLock); conditions: read-out: MAT2A inhibitory Activity IC50
How it was run: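 Compounds tested from 10 μM top concentration in 3-fold dilutions, preincubated 120 min at room temperature with MAT2A ([…] final) in Tris/KCl/MgCl2/EDTA/BSA buffer. Reaction started with […] L-methionine and 400 μM ATP, run 90 min at room temperature; phosphate read by PiColorLock after 30 min. IC50 fitted from % inhibition versus no-enzyme and DMSO controls.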

[2] = system: HCT116 WT cells; assay: Cell proliferation inhibition test (Cell-Titer Glo), HCT116 WT; format: cell-based, human; conditions: Homo sapiens, HCT-116, 144 h, 6 days, read-out: HCT116 WT Antiproliferative activity IC50
Method: (§1) Test Example 3. Cell Proliferation Inhibition Test of Human Colon Cancer HCT116 WT Cells and HCT116 MTAP-1-Cells
(§2) The brief introduction of the test principle: After the test MAT2A inhibitor was incubated with cancer cells for a period of time, the effect of the test compound on cell proliferation was measured using a cell proliferation count method based on the ATP content.
(§3) Reference: The experiment referred to the method disclosed in patent WO2018045071.
(§4) Material and cell: HCT116 WT cells and HCT116 MTAP^−/− cells were purchased from KYinno; fetal bovine serum, McCoy's 5a culture medium, and penicillin-streptomycin were purchased from Gibco Company (U.S.), 96-well plates were purchased from Corning Company (U.S.), and the Cell-Titer Glo reagent was purchased from Promega Company (U.S.).
(§5) Cell culture: HCT116 WT cells and HCT116 MTAP^−/− cells were cultured with a McCoy's 5a medium containing 10% fetal bovine serum+1% penicillin-streptomycin at 37° C. with 5% CO2.
(§6) Cells at logarithmic growth phase were available for the experiment.
(§7) Cell proliferation activity test: The Cell-Titer Glo reagent was used to test the compound for inhibitory activity on proliferation of both HCT116 WT and HCT116 MTAP^−/− cell strains. The cells were adjusted to a concentration of 400 cells per well, seeded on a 96-well plate, and incubated overnight at 37° C. with 5% CO2.
(§8) In the experimental group, the test compound was diluted sequentially with DMSO and a culture medium, and transferred to a cell plate at a final concentration of 10 μM, 3-fold dilution. The cells were continuously cultured at 37° C. with 5% CO2 for 6 days. The Cell-Titer Glo reagent was added and the cell activity was measured.
(§9) A negative control group and a positive control group were respectively used as Bottom and Top. The negative control group was not added with cells, only added with the culture medium in the same volume, and other operations were consistent with those of the experimental group. The positive control group was not added with the test compound, only added with DMSO in the same volume, and other operations were consistent with those of the experimental group.
(§10) The % Compound inhibition was calculated and fitted to give the IC50 of the compound.
(§11) % Compound inhibition=1-100%×(Signal−Bottom)/(Top−Bottom).
(§12) Signal referred to the signal value of the experimental group, Bottom referred to the average signal value of the negative control group, and Top referred to the average signal value of the positive control group.
(§13) HCT116 MTAP^−/− cells are cells not expressing MTAP protein obtained by site-directed knockout of wild type HCT116 (HCT116 WT) cells by gene knockout. Synthetic lethality will occur due to MAT2A inhibition and the deletion of MTAP, thereby causing tumor cell death. The activity and selectivity of the MAT2A inhibitor can be evaluated by testing the antiproliferative activity of the MAT2A inhibitor on human colon cancer HCT116 MTAP^−/− cells and human colon cancer HCT116 WT.

[3] = system: HCT116 MTAP^−/− cells; assay: Determination of intracellular SAM level by LC-MS/MS; format: cell-based; conditions: Homo sapiens, HCT-116, 6 h, read-out: SAM production inhibitory activity IC50
Method: Test Example 2. Determination of Intracellular SAM Level
The brief introduction of the test principle: After the test MAT2A inhibitor was incubated with cancer cells for a period of time, the cells were lysed with a stop reagent to quench the activity of the MAT2A enzyme. The catalytic product SAM of MAT2A in the cell lysate was quantitatively determined by LC-MS/MS, and thus the activity of MAT2A in the cell was reflected.
as §3
Material and cell: HCT116 MTAP^−/− cells were purchased from KYinno; fetal bovine serum, McCoy's 5a culture medium, and penicillin-streptomycin were purchased from Gibco Company (U.S.), and 96-well plates were purchased from Corning Company (U.S.).
Cell culture: HCT116 MTAP^−/− cells were cultured with a McCoy's 5a medium containing 10% fetal bovine serum+1% penicillin-streptomycin at 37° C. with 5% CO2. Cells at logarithmic growth phase were available for the experiment.
LC-MS/MS detection: The effect of the compound on the SAM production level in HCT116 MTAP^−/− cell strains was detected by LC-MS/MS. The cells were adjusted to a concentration of 50000 cells per well, seeded on a 96-well plate, and incubated overnight at 37° C. with 5% CO2. In the experimental group, the test compound was dissolved in DMSO, diluted sequentially with DMSO and a culture medium, and transferred to a cell plate at a final concentration of 10 μM, 3-fold dilution. The cells were continuously cultured at 37° C. with 5% CO2 for 6 h. The supernatant was pipetted off. After the cells were washed once with PBS, glacial acetic acid was added to lyse the cells. After the lysate was processed, the SAM concentration was determined by LC-MS/MS analysis.
A negative control group and a positive control group were respectively used as Bottom and Top. The negative control group was added with 10 μM positive compound (compound 072 of Example 51 of patent WO2021139775A1) in the same volume, and other operations were consistent with those of the experimental group. The positive control group was not added with the test compound, only added with DMSO in the same volume, and other operations were consistent with those of the experimental group.
as §10
% Compound inhibition=1−100%×(Signal−Bottom)/(Top−Bottom)
as §12

[4] = system: HCT116 MTAP^−/− cells; assay: Cell proliferation inhibition test (Cell-Titer Glo), HCT116 MTAP−/−; format: cell-based, human; conditions: Homo sapiens, HCT-116, 144 h, 6 days, read-out: HCT116 MTAP−/− Antiproliferative activity IC50
Method: as §1, §2, §3, §4, §5, §6, §7, §8, §9, §10, §11, §12, §13

MAT2A, sequence (P31153 whole entry): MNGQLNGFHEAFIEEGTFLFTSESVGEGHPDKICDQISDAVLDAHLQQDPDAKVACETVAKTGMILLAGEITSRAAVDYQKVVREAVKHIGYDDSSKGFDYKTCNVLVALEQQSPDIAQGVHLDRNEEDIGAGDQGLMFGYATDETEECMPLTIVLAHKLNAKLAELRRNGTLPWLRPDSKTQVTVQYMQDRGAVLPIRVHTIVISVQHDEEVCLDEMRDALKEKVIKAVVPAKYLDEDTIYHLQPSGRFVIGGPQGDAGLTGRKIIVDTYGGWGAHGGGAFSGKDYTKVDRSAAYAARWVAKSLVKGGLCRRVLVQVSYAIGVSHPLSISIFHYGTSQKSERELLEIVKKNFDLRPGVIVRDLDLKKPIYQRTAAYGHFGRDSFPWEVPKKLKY

SMILES	pIC50 ([1]; class symbols)	pIC50 ([1]; numeric values)	pIC50 [2]	pIC50 [3]	pIC50 [4]
Cn1cnc2c(=O)n(-c3cccc(Cl)c3Cl)c3nc(C(F)(F)F)ccc3c21 [Compound 37, 5-(2,3-dichlorophenyl)-1-methyl-7-(trifluoromethyl)-1,5-dihydro-4H-imidazo[4,5-c][1,8]naphthyridin-4-one]	> 7.00	7.32	5.04	8.06	6.77
Cc1ncccc1-n1c(=O)c2ncn(C)c2c2ccc(C(F)(F)F)nc21 (single isomer, unassigned) [Compound 20-P1, 1-methyl-5-(2-methylpyridin-3-yl)-7-(trifluoromethyl)-1,5-dihydro-4H-imidazo[4,5-c][1,8]naphthyridin-4-one]	> 7.00	7.69	6.63	8.80	7.48
O=c1c2nc[nH]c2c2ccc(C(F)(F)F)nc2n1-c1ccccc1Cl [Compound 1, 5-(2-chlorophenyl)-7-(trifluoromethyl)-1,5-dihydro-4H-imidazo[4,5-c][1,8]naphthyridin-4-one]	> 7.00	7.50	6.09	8.42	6.94
Cn1cnc2c(=O)n(-c3ccccc3Cl)c3nc(C(F)(F)F)ccc3c21 [Compound 2, 5-(2-chlorophenyl)-1-methyl-7-(trifluoromethyl)-1,5-dihydro-4H-imidazo[4,5-c][1,8]naphthyridin-4-one]	> 7.00	7.16	5.32	8.13	6.28
Cc1cccc(-n2c(=O)c3ncn(C)c3c3ccc(C(F)(F)F)nc32)c1Cl [Compound 36, 5-(2-chloro-3-methylphenyl)-1-methyl-7-(trifluoromethyl)-1,5-dihydro-4H-imidazo[4,5-c][1,8]naphthyridin-4-one]	> 7.00	7.28	5.00	8.25	7.09
